Assay results as given in patent US9815851B2, “Pyrrolo carboxamides as modulators of orphan nuclear receptor RAR-related orphan receptor-gamma (RORγ, NR1F3) activity and for the treatment of chronic inflammatory and autoimmune diseases” (PHENEX PHARMACEUTICALS AG, priority 2011, dated 2017).
Where two headings read alike, the source gives them in different places.

What was measured:
[1] = target: T1, RORγ ligand binding domain (LBD) (Homo sapiens, UniProt P51449); assay: TR-FRET Activity Assay (ligand sensing, RORγ-LBD / coactivator peptide interaction, LANCE); assay type: biochemical
T1 construct: made in house; host or cells: E. coli BL-21 (BL3), vector pDEST15
T1 sequence (P51449 269-508 limits assumed): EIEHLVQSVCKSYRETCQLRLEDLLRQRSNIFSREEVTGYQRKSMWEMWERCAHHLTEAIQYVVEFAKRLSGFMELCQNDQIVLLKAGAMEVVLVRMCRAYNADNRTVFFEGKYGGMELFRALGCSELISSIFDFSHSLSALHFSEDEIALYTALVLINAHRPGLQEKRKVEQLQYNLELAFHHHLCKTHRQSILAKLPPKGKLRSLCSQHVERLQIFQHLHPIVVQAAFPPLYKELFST

RORγ = target: T2, RORγ (UniProt P51449); assay: RORγ Gal4 Reporter Gene Assay in 293T cells (firefly and renilla luciferase); assay type: cell-based, human
T2 sequence (P51449 1-518): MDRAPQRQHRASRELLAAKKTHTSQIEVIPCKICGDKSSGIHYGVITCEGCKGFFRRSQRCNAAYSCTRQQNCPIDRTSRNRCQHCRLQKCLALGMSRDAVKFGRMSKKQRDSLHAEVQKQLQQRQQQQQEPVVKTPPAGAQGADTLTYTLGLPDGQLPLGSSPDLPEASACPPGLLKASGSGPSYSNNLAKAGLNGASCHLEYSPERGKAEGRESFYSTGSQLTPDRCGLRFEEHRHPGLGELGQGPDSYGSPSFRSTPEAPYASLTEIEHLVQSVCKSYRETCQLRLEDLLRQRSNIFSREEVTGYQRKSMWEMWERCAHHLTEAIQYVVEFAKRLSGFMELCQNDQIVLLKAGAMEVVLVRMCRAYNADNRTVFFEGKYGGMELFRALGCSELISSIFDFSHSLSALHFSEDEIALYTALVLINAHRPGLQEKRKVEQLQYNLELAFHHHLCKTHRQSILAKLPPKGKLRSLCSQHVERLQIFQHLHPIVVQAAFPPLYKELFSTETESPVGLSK

[2] = first value of the cell FRET/FF/REN, TR-FRET activity assay, read-out: pIC50 (FRET) (converted)
[3] = second value of the cell, Gal4 reporter gene assay in 293T cells, firefly luciferase
[4] = third value of the cell, Gal4 reporter gene assay in 293T cells, renilla normalised luciferase

Compound | IC50 [1, 2] [nM] | pIC50 (FF) (RORγ; [3]) | pIC50 (REN) (RORγ; [4]) | IC50 [1] [nM] | pIC50 (FF) (RORγ) | pIC50 (REN) (RORγ)
Cc1c(C(=O)NC2COC2)cc(-c2cc(C(C)(C)C)cc(C3(C)CC3)c2)n1CC1CCCCC1 [1/81] | 200 | 7.4 | 7.4 |  |  | 
Cc1c(C(=O)NCC(C)(C)O)cc(-c2cc(C(C)(C)C)cc(C3(C)CC3)c2)n1CC1CCCCC1 [1/87] |  |  |  | 316 | 6.5/7.2/7.2 | 6.5/7.2/7.2
Cc1c(C(=O)NC2CCOCC2)cc(C2=NN(S(=O)(=O)c3ccccc3)C3(CCCCC3)C2)n1CC1CCCCC1 [24/1] | 12600 | 6.3 | 6.4 |  |  | 
Cc1c(C(=O)NC2COC2)cc(-c2cc(C(C)(C)C)nc(C(F)(F)F)c2)n1CC1CCCCC1 [9/15] |  |  |  | 316 | 6.5/6.5/6.5 | 6.5/6.5/6.5
COCc1c(C(=O)NC2CCOCC2)cc(-c2ccc(S(=O)(=O)NC(C)(C)C)c(C(C)(C)C)c2)n1CC1CCCCC1 [1/29] |  |  |  | 631 | 6.2/7.2/7.2 | 6.2/7.2/7.2
Cc1c(C(=O)N[C@H]2C[C@H](C(=O)O)C2)cc(-c2ccc(S(=O)(=O)NC(C)(C)C)c3c2CCCC3)n1CC1CCCCC1 [17/281] | 1000 | 7.7 | 7.7 |  |  | 
Cc1c(C(=O)N[C@H]2C[C@H](C(=O)O)C2)cc(-c2cc(OC(F)(F)F)cc(C3(C)CC3)c2)n1CC1CCCCC1 [17/350] | 1000 | 7.7 | 7.7 |  |  | 
Cc1c(C(=O)NCCC(C)(C)C(=O)O)cc(-c2cc(C(C)(C)O)cc(C(F)(F)F)c2)n1CC1CCCCC1 [17/308] | 6310 | 6.5 | 6.4 |  |  | 
Cc1c(C(=O)NCC(C)(C)O)cc(-c2cn(S(=O)(=O)N3CCCCC3)c3ccccc23)n1CC1CCCCC1 [9/2] | 631 | 7.4 | 7.5 |  |  | 
Cc1c(C(=O)NCC(C)(C)NC(=O)CC2SC(=O)NC2=O)cc(-c2cc(C(C)(C)C)c3c(c2)C2(CCO3)CC2)n1CC1CCCCC1 (stereo not drawn) [17/35] | 1580 | 6.4 | 6.3 |  |  | 
Cc1c(C(=O)NCCN2CCN(C)CC2)cc(-c2cc(C(C)(C)C)cc(C3(C)CC3)c2)n1CC1CCCCC1 [17/346] |  |  |  | 5010 | 5.3/<4.7/<4.7 | 5.3/<4.7/<4.7
Cc1c(C(=O)N2CC(CC(=O)O)C2)cc(-c2ccc(S(=O)(=O)NC(C)(C)C)c(C(F)(F)F)c2)n1CC1CCCCC1 [17/179] | 398 | 6.1 | 6.1 |  |  | 
Cc1c(C(=O)NCC(C)(C)O)cc(-c2cc(C(=O)NC(C)(C)C)cc(C(C)(C)C)c2)n1CC1CCCCC1 [15/8] |  |  |  | 1000 | 6.0/7.3/7.4 | 6.0/7.3/7.4
Cc1c(C(=O)NC2COC2)cc(-c2cc(C(C)(C)C)cc(C(C)(C)C)c2)n1CC1CCCCCC1 [1/115] | 251 | 7.3 | 7.3 |  |  | 
Cc1c(C(=O)NC2CCOCC2)cc(-c2cc(C(C)(C)O)cc3ccccc23)n1CC1CCCCC1 [17/185] |  |  |  | 501 | 6.3/6.4/6.2 | 6.3/6.4/6.2
Cc1c(C(=O)NCC(C)(C)C(=O)NS(C)(=O)=O)cc(-c2cc(C(C)(C)C)c3c(c2)C2(CCO3)CC2)n1CC1CCCCC1 [17/26] | 1580 | 7.3 | 7.3 |  |  | 
Cc1c(C(=O)NC2CCOCC2)cc(-c2ccc(S(=O)(=O)NC(C)(C)C)c(C(F)F)c2)n1CC1CCCCC1 [17/115] |  |  |  | 316 | 6.5/7.9/8.0 | 6.5/7.9/8.0
Cc1c(C(=O)NCCCCCO)cc(-c2cc(C(C)(C)C)cc(C(C)(C)C)c2)n1CC1CCCCC1 [1/67] | 158 | 7.2 | 7.3 |  |  | 

Compound | IC50 [1, 2] [nM] | pIC50 (FF) (RORγ; [3]) | pIC50 (REN) (RORγ; [4]) | IC50 [1] [nM] | pIC50 (FF) (RORγ) | pIC50 (REN) (RORγ)
Cc1c(C(=O)N[C@H]2CC[C@H](C(=O)O)CC2)cc(-c2cc(C(C)(C)C)c3c(c2)C2(CCO3)CC2)n1CC1CCCCC1 [17/57] | 794 | 7.4 | 7.5 |  |  | 
CC(C)(C)NS(=O)(=O)c1ccc(-c2cc(C(=O)NC3CCOCC3)c(F)n2CC2CCCCC2)cc1C(F)(F)F [20/1] | 251 | 7.1 | 7.3 |  |  | 
Cc1c(C(=O)NCCN2CCOCC2)cc(-c2ccc(S(=O)(=O)NC(C)(C)C)c(C(C)(C)C)c2)n1CC1CCCCC1 [1/11] | 2000 | 6.1 | 6.1 |  |  | 
Cc1c(C(=O)NC2CCOCC2)cc(-c2ccc(S(=O)(=O)NC(=O)C(C)(C)C)c(C(F)(F)F)c2)n1CC1CCCCC1 [17/258] | 7940 | < 4.7 | < 4.7 |  |  | 
Cc1c(C(=O)NCCC(C)(C)C(=O)O)cc(-c2cc(C(=O)NC(C)(C)C)cc(C3(C)CC3)c2)n1CC1CCCCC1 [17/340] | 1580 | 7.1 | 7.1 |  |  | 
Cc1c(C(=O)NC2CCOCC2)cc(-c2cnc(S(=O)(=O)NC(C)(C)C)c(C(F)(F)F)c2)n1CC1CCCCC1 [17/190] | 1580 | 6.5 | 6.6 |  |  | 
COC(C)(C)c1cc(C(=O)NC(C)(C)C)cc(-c2cc(C(=O)NC3CCOCC3)c(C)n2CC2CCCCC2)c1 [17/324] |  |  |  | 3160 | 5.5/6.8/6.8 | 5.5/6.8/6.8
Cc1c(C(=O)NC2COC2)cc(-c2cc(C(C)(C)C)cc(C(C)(C)C)c2)n1S(=O)(=O)N1CCCCCC1 [7/4] | 200 | 7.1 | 7.1 |  |  | 
Cc1c(C(=O)NCC2(C(N)=O)CCOCC2)cc(-c2ccc(S(=O)(=O)NC(C)(C)C)c(C(F)(F)F)c2)n1CC1CCCCC1 [17/203] | 501 | 7.8 | 7.8 |  |  | 
Cc1c(C(=O)NN2CCOCC2)cc(-c2cc(C(C)(C)C)c3c(c2)C2(CCO3)CC2)n1CC1CCCCC1 [17/9] |  |  |  | 631 | 6.2/6.8/6.8 | 6.2/6.8/6.8
Cc1c(C(=O)NCC(C)(C)NS(C)(=O)=O)cc(-c2cc(C(C)(C)C)cc(C3(C)CC3)c2)n1CC1CCCCC1 [17/67] |  |  |  | 251 | 6.6/7.7/7.5 | 6.6/7.7/7.5
Cc1c(C(=O)NCC2(O)CCOCC2)cc(-c2cc(C(C)(C)C)cc(C3(C)CC3)c2)n1CC1CCCCC1 [17/64] | 316 | 7.8 | 7.7 |  |  | 
Cc1c(C(=O)NCCc2nnn[nH]2)cc(-c2cc(C(C)(C)C)cc(C3(C)CC3)c2)n1CC1CCCCC1 [17/70] | 1260 | 7.9 | 7.9 |  |  | 
Cc1c(C(=O)NCC2(O)COC2)cc(-c2cc(C(C)(C)C)c3c(c2)C2(CCO3)CC2)n1CC1CCCCC1 [17/36] | 794 | 6.9 | 6.9 |  |  | 
Cc1c(C(=O)NCCN2CCOCC2)cc(-c2cc(C(C)(C)C)cc(C3(C)CC3)c2)n1CC1CCCCC1 [1/88] |  |  |  | 398 | 6.4/6.5/6.5 | 6.4/6.5/6.5
Cc1c(C(=O)NCC(=O)O)cc(-c2cc(C(C)(C)C)cc(C(C)(C)C)c2)n1CC1CCCCC1 [1/57] | 2510 | 5.8 | 5.8 |  |  | 
Cc1c(S(=O)(=O)NC(C)(C)C)ccc(-c2cc(C(=O)NCCC(C)(C)C(=O)O)c(C)n2CC2CCCCC2)c1C(F)(F)F [17/286] | 1260 | 7.4 | 7.5 |  |  | 
